Key:
[1] = target: T1, aldolase (SEQ ID NO: 10), RhaD aldolase (Bacteroides thetaiotaomicron, UniProt Q8A1A0); test: Screening of ketones as acceptors with DHAP as donor, DHAP disappearance assay plus mass spectrometry; format: biochemical; conditions: for DHAP disappearance (%): 10 eq of ketone, 8 μmol DHAP, CoCl2, pH 7.5, RT, 5 h, under Ar; for acceptor of the enzyme when DHAP is the donor: SEQ ID NO: 10
T1 construct: made in house
Method: Enzyme corresponding to SEQ ID No 10 was purified for deeper characterization and a scale up was performed to analyze the new branched sugars. This aldolase was tested with DHAP as donor and various ketones under argon conditions to avoid oxidation of DHAP and cobalt ion (CoCl2) to optimize the activity. Conversion of the various reactions was determined by assaying DHAP disappearance using triose-phosphate-isomerase coupled with ca-glycerophosphate dehydrogenase enzymes. In addition the products of those reactions were analyzed by mass spectrometry. When the data from the two systems are in agreement, the compound is considered to be substrate of the enzyme.
(§1) Prior to the reaction, all the solutions and solids were degased by bubbling or circulating Ar. Under an Ar atmosphere, 1 mg of aldolase (SEQ ID NO: 10, 6.5 U), 8 μmol of DHAP (123 μL of 65 mM solution), 8 μL CoCl2 (10 mM), 10 eq of electrophile (selected ketone) and water to reach 200 μL final volume were added in a vial. The pH was adjusted to 7.5. The reaction mixture was gently stirred at RT for 5 h. DHAP disappearance was followed spectrophotometrically. The aldolase was removed by filtration over ultra-centrifugal filter unit (Amicon, 10 kDa). The reaction medium was directly analyzed by mass spectrometry (liquid chromatography (Alliance 2695—Waters) coupled to high resolution mass spectrometry (Micromass Q-TOF—Waters)).

SEQ ID: 23 (FucA) = test: LC/MS Orbitrap validation of products from 6 ketones, FucA enzyme; format: biochemical, Kyrpidia tusciae; conditions: 5 to 10 eq of ketone, CoCl2, pH 7.3, 5 h at RT, LC/MS detection
Method: (§2) A mother solution was prepared by mixing DHAP (5.2 mL, 35 mM), CoCl2 (200 μL, 10 mM), 5 to 10 eq of ketone, adjusted to pH 7.3 and degased under Ar. In 10 vials containing each 4 mg of enzyme to screen (beforehand degased under Ar) were added 400 μL of the mother solution. The reactions were gently stirred for 5 h at RT. The aldolase was removed by filtration over ultra-centrifugal filter unit (Amicon, 10 kDa). The reaction medium was analyzed by mass spectrometry.
(§3) The detection of the compounds of interest was performed by LC/ESI-MS method using a Dionex TCC-3000RS chromatographic system (Thermo Fisher Scientific, Courtaboeuf, France) coupled to an ultra-high resolution Orbitrap Elite hybrid mass spectrometer ((Thermo Fisher Scientific, Courtaboeuf, France) equipped with a HESI source.
(§4) A Sequant ZICpHILIC column […], 2.1×100 mm (Merck, Darmstadt, Germany) thermostated at 15° C. was employed for HPLC separation. Mobile phase flow rate was set at 0.2 ml/min, and injection volume was 5 μl. Aqueous solution of 10 mM (NH4)2CO3 (at a pH of 9.9 adjusted by NH4OH) was used as phase A and acetonitrile was used as solvent B. The following gradient conditions were applied for elution: 1 min equilibration step at 80% of phase B; 7 min linear gradient from 80 to 40% of phase B; 3 min isocratic elution at 40% of B, return to 80% of phase B in 3 min and a reconditioning step of 8.5 min.
(§5) Mass and product ion spectra were recorded in the ESI negative ion mode. Ion spray (IS) was set at −4.5 kV and capillary temperature at 275° C. Sheath gas, auxiliary gas and sweep gas flow rates were set at 60, 10 and 0 arbitrary units, respectively. The mass resolution power of the detector was 60000.
(§6) Raw data were manually inspected using the Qual-browser module of Xcalibur version 2.2 (Thermo Fisher Scientific, Courtaboeuf, France) for enzymes from SEQ ID NO:1 to 20 and SEQ ID NO:23 for DHAP+dihydroxyacetone, and for SEQ ID NO:1 to 10 for the other couples of reagents.

[2] = system: enzymes of SEQ ID NO:1-10 (RhaD); test: LC/MS Orbitrap validation of products from 6 ketones, RhaD enzymes; format: biochemical; conditions: 5 to 10 eq of ketone, CoCl2, pH 7.3, 5 h at RT, LC/MS detection
Method: as §2, §3, §4, §5, §6

[3] = target: RhaD of various microorganisms including E. coli (Escherichia coli, UniProt P32169); test: Substrate spectrum of RhaD aldolases with respect to ketones; format: biochemical
Sequence of RhaD of various microorganisms including E. coli (P32169 whole entry): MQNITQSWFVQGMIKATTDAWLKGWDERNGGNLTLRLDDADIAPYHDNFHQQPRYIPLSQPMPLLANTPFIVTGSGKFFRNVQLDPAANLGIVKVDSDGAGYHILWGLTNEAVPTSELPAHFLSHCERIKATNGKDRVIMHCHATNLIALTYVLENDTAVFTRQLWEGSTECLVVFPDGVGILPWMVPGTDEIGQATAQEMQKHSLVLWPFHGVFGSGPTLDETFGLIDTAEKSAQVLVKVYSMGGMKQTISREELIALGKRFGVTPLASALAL

[4] = system: L-fuculose-1-phosphate aldolase (FucA) of SEQ ID NO:22-23, and 26-34; test: Aldol reaction of DHAP with dihydroxyacetone (DHA), FucA aldolases; format: biochemical; conditions: 10 eq of DHA, CoCl2, pH 7.5, RT, 5 h
Method: (§7) Aldolases were tested with DHAP as donor and DHA as acceptor. Cobalt ion (CoCl2) to was added to optimize the activity. Conversion of the reactions was determined by assaying DHAP disappearance using triose-phosphate-isomerase coupled with α-glycerophosphate dehydrogenase enzymes. In addition the products of those reactions were analyzed by mass spectrometry. When the data from the two systems are in agreement, DHA is considered to be substrate of the enzyme.
as §1, with “1” for “Prior to the reaction, all the solutions and solids were degased by bubbling or circulating Ar. Under an Ar atmosphere, 1”, “(RhaD, FucA or TagA),” for “(SEQ ID NO: 10, 6.5 U),”, “DHA” for “electrophile (selected ketone)”

[5] = system: RhaD aldolases of SEQ ID NO:1 to SEQ ID NO:21; test: Aldol reaction of DHAP with dihydroxyacetone (DHA), RhaD aldolases; format: biochemical; conditions: 10 eq of DHA, CoCl2, pH 7.5, RT, 5 h
Method: as §7
as §1, with “1” for “Prior to the reaction, all the solutions and solids were degased by bubbling or circulating Ar. Under an Ar atmosphere, 1”, “(RhaD, FucA or TagA),” for “(SEQ ID NO: 10, 6.5 U),”, “DHA” for “electrophile (selected ketone)”

[6] = system: DHA aldolases (i.e. FSA of E. coli), deoc aldolase, class I DHAP aldolases and pyruvate aldolases; test: Aldol reaction of DHAP with DHA, aldolases not belonging to class II DHAP aldolases; format: biochemical; conditions: data not shown
[7] = target: T2, L-tagatose 1.6 biP aldolase (TagA) of SEQ ID NO:35 (Escherichia coli, UniProt P0AB74); test: Aldol reaction of DHAP with dihydroxyacetone (DHA), TagA aldolase; format: biochemical; conditions: 10 eq of DHA, CoCl2, pH 7.5, RT, 5 h
T2 construct: made in house
T2 sequence (P0AB74 whole entry): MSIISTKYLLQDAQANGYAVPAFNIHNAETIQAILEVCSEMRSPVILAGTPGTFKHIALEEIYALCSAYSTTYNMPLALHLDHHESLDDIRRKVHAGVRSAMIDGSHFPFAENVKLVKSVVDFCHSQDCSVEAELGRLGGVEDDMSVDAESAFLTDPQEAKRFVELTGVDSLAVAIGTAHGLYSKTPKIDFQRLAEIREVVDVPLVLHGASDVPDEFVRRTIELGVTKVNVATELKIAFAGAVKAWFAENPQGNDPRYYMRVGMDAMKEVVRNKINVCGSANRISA
Method: as §7
as §1, with “1” for “Prior to the reaction, all the solutions and solids were degased by bubbling or circulating Ar. Under an Ar atmosphere, 1”, “(RhaD, FucA or TagA),” for “(SEQ ID NO: 10, 6.5 U),”, “DHA” for “electrophile (selected ketone)”

T1 sequence (Q8A1A0 whole entry, change not shown): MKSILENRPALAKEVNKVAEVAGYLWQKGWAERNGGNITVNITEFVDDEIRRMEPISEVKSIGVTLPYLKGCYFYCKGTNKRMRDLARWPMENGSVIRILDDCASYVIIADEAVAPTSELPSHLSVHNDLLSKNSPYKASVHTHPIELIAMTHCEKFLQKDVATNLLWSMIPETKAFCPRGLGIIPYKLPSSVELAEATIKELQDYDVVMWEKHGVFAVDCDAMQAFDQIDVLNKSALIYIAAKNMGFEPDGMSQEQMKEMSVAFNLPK

Compound | DHAP disappearance (%) [1] [%] | ability of the tested FucA to catalyze the reaction of DHAP with the ketone to form the expected product (SEQ ID: 23 (FucA)) | ability of the tested RhaD to catalyze the reaction of DHAP with the ketone to form the expected product [2] | further results
CC(=O)C(C)O (stereo not drawn) | 96 | – | – | –
O=C(CO)Cc1ccccc1 | 71 | – | – | –
CC(=O)CC(C)=O | 83 | – | – | –
CC(=O)C(=O)O | 75 | – | – | –
O=C(CCl)CCl | 72 | – | – | –
CCC(=O)CO [1-hydroxybutanone] | 84 | – | – | –
O=C1CCCCC1O (stereo not drawn) [2-hydroxycyclohexanone] | 84 | able to catalyze | able to catalyze | –
CC(=O)CCO [4-hydroxybutan-2-one] | – | – | – | acceptor of the enzyme when DHAP is the donor [1]: not acceptors
O=C(CO)[C@@H](O)CO [L-erythrulose] | 100 | able to catalyze | able to catalyze | –
CC(=O)C(C)=O [butanedione] | 100 | able to catalyze | able to catalyze | –
O=C1CCCC1 [cyclopentanone] | 0 | – | – | ability of RhaD to catalyze the reaction of DHAP with the ketone [3]: unable to catalyze; acceptor of the enzyme when DHAP is the donor [1]: not acceptors
O=C(CO)CO [dihydroxyacetone] | 100 | able to catalyze | able to catalyze | ability of the enzymes to catalyse the reaction between DHAP and DHA [4]: same results; ability of the enzymes to catalyse the reaction between DHAP and DHA [5]: able to catalyse; ability of the enzymes to catalyse the reaction between DHA and DHAP [6]: failed to catalyze; ability of the enzyme to catalyse the reaction between DHAP and DHA [7]: same results
CC(=O)CCO [drawing 99] | 0 | – | – | –
O=C(O)C(=O)CO [hydroxypyruvate] | 92 | able to catalyze | able to catalyze | –
acetone | 0 | – | – | ability of RhaD to catalyze the reaction of DHAP with the ketone [3]: unable to catalyze; acceptor of the enzyme when DHAP is the donor [1]: not acceptors
butanone | 0 | – | – | ability of RhaD to catalyze the reaction of DHAP with the ketone [3]: unable to catalyze; acceptor of the enzyme when DHAP is the donor [1]: not acceptors
hydroxyacetone | 95 | able to catalyze | able to catalyze | –
